From patent US20230017045A1, “PYRIDINE AND PYRIMIDINE CARBOXYLATE HERBICIDES AND METHODS OF USE THEREOF” (Dow AgroSciences LLC, priority 2017, published 2023)

test system: test plant species; assay: Post-emergent herbicidal activity test (greenhouse, foliar spray, visual growth reduction); type: in vivo; settings: post-emergence, 336 h, ALOMY: blackgrass (Alopecurus myosuroides), 140 g ai/ha, 14 days after application, read-out: Visual Growth Reduction (%) 14 Days After Application, ALOMY
Summary of the method: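 Plants grown in greenhouse (15 h photoperiod, 23-29° C day/22-28° C night) to first or second true leaf stage were sprayed overhead with compound in acetone/water/isopropanol/DMSO/crop oil/X-77 carrier at 187 L/ha. Injury was scored visually after 14 d on a 0-100% scale versus solvent-blank and untreated controls.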

| SMILES | pest or weed control at 140 g/ha |
| --- | --- |
| COC(=O)c1nc(-c2ccc(C#N)c(Cl)c2)ccc1Cl [F125, Methyl 3-chloro-6-(3-chloro-4-cyanophenyl) picolinate] | 0 to 29% |
| COC(=O)c1nc(-c2ccc(C(F)(F)F)cc2Br)ccc1Cl [F30, Methyl 6-(2-bromo-4-trifluoromethyl)phenyl-3-chloropicolinate] | 60 to 74% |

same assay, conditions: post-emergence, 336 h, AMARE: redroot pigweed (Amaranthus retroflexus), 140 g ai/ha, 14 days after application, read-out: Visual Growth Reduction (%) 14 Days After Application, AMARE

| SMILES | pest or weed control at 140 g/ha |
| --- | --- |
| COC(=O)c1nc(-c2ccc(C#N)c(Cl)c2)ccc1Cl [F125, Methyl 3-chloro-6-(3-chloro-4-cyanophenyl) picolinate] | 0 to 29% |
| COC(=O)c1nc(-c2ccc(C(F)(F)F)cc2Br)ccc1Cl [F30, Methyl 6-(2-bromo-4-trifluoromethyl)phenyl-3-chloropicolinate] | 95 to 100% |

same assay, conditions: post-emergence, 336 h, AVEFA: wild oat (Avena fatua), 140 g ai/ha, 14 days after application, read-out: Visual Growth Reduction (%) 14 Days After Application, AVEFA

| SMILES | pest or weed control at 140 g/ha |
| --- | --- |
| COC(=O)c1nc(-c2ccc(C#N)c(Cl)c2)ccc1Cl [F125, Methyl 3-chloro-6-(3-chloro-4-cyanophenyl) picolinate] | 0 to 29% |
| COC(=O)c1nc(-c2ccc(C(F)(F)F)cc2Br)ccc1Cl [F30, Methyl 6-(2-bromo-4-trifluoromethyl)phenyl-3-chloropicolinate] | 45 to 59% |

same assay, conditions: post-emergence, 336 h, CHEAL: lambsquarters (Chenopodium album), 140 g ai/ha, 14 days after application, read-out: Visual Growth Reduction (%) 14 Days After Application, CHEAL

| SMILES | pest or weed control at 140 g/ha |
| --- | --- |
| COC(=O)c1nc(-c2ccc(C#N)c(Cl)c2)ccc1Cl [F125, Methyl 3-chloro-6-(3-chloro-4-cyanophenyl) picolinate] | 45 to 59% |
| COC(=O)c1nc(-c2ccc(C(F)(F)F)cc2Br)ccc1Cl [F30, Methyl 6-(2-bromo-4-trifluoromethyl)phenyl-3-chloropicolinate] | 95 to 100% |

same assay, conditions: post-emergence, 336 h, CIRAR: canada thistle (Cirsium arvense), 140 g ai/ha, 14 days after application, read-out: Visual Growth Reduction (%) 14 Days After Application, CIRAR

| SMILES | pest or weed control at 140 g/ha |
| --- | --- |
| COC(=O)c1nc(-c2ccc(C#N)c(Cl)c2)ccc1Cl [F125, Methyl 3-chloro-6-(3-chloro-4-cyanophenyl) picolinate] | 0 to 29% |
| COC(=O)c1nc(-c2ccc(C(F)(F)F)cc2Br)ccc1Cl [F30, Methyl 6-(2-bromo-4-trifluoromethyl)phenyl-3-chloropicolinate] | 85 to 94% |

same assay, conditions: post-emergence, 336 h, CYPES: yellow nutsedge (Cyperus esculentus), 140 g ai/ha, 14 days after application, read-out: Visual Growth Reduction (%) 14 Days After Application, CYPES

| SMILES | pest or weed control at 140 g/ha |
| --- | --- |
| COC(=O)c1nc(-c2ccc(C#N)c(Cl)c2)ccc1Cl [F125, Methyl 3-chloro-6-(3-chloro-4-cyanophenyl) picolinate] | 0 to 29% |
| COC(=O)c1nc(-c2ccc(C(F)(F)F)cc2Br)ccc1Cl [F30, Methyl 6-(2-bromo-4-trifluoromethyl)phenyl-3-chloropicolinate] | 0 to 29% |

same assay, conditions: post-emergence, 336 h, DIGSA: crabgrass (Digitaria sanguinalis), 140 g ai/ha, 14 days after application, read-out: Visual Growth Reduction (%) 14 Days After Application, DIGSA

| SMILES | pest or weed control at 140 g/ha |
| --- | --- |
| COC(=O)c1nc(-c2ccc(C#N)c(Cl)c2)ccc1Cl [F125, Methyl 3-chloro-6-(3-chloro-4-cyanophenyl) picolinate] | 0 to 29% |
| COC(=O)c1nc(-c2ccc(C(F)(F)F)cc2Br)ccc1Cl [F30, Methyl 6-(2-bromo-4-trifluoromethyl)phenyl-3-chloropicolinate] | 85 to 94% |

same assay, conditions: post-emergence, 336 h, ECHCG: barnyardgrass (Echinochloa crus-galli), 140 g ai/ha, 14 days after application, read-out: Visual Growth Reduction (%) 14 Days After Application, ECHCG

| SMILES | pest or weed control at 140 g/ha |
| --- | --- |
| COC(=O)c1nc(-c2ccc(C#N)c(Cl)c2)ccc1Cl [F125, Methyl 3-chloro-6-(3-chloro-4-cyanophenyl) picolinate] | 0 to 29% |
| COC(=O)c1nc(-c2ccc(C(F)(F)F)cc2Br)ccc1Cl [F30, Methyl 6-(2-bromo-4-trifluoromethyl)phenyl-3-chloropicolinate] | 45 to 59% |

same assay, conditions: post-emergence, 336 h, IPOHE: ivy-leaf morning glory (Ipomoea hederacea), 140 g ai/ha, 14 days after application, read-out: Visual Growth Reduction (%) 14 Days After Application, IPOHE

| SMILES | pest or weed control at 140 g/ha |
| --- | --- |
| COC(=O)c1nc(-c2ccc(C#N)c(Cl)c2)ccc1Cl [F125, Methyl 3-chloro-6-(3-chloro-4-cyanophenyl) picolinate] | 30 to 44% |
| COC(=O)c1nc(-c2ccc(C(F)(F)F)cc2Br)ccc1Cl [F30, Methyl 6-(2-bromo-4-trifluoromethyl)phenyl-3-chloropicolinate] | 95 to 100% |

same assay, conditions: post-emergence, 336 h, KCHSC: kochia (Bassia scoparia), 140 g ai/ha, 14 days after application, read-out: Visual Growth Reduction (%) 14 Days After Application, KCHSC

| SMILES | pest or weed control at 140 g/ha |
| --- | --- |
| COC(=O)c1nc(-c2ccc(C#N)c(Cl)c2)ccc1Cl [F125, Methyl 3-chloro-6-(3-chloro-4-cyanophenyl) picolinate] | 0 to 29% |
| COC(=O)c1nc(-c2ccc(C(F)(F)F)cc2Br)ccc1Cl [F30, Methyl 6-(2-bromo-4-trifluoromethyl)phenyl-3-chloropicolinate] | 75 to 84% |

same assay, conditions: post-emergence, 336 h, ORYSA: rice (Oryza sativa), 140 g ai/ha, 14 days after application, read-out: Visual Growth Reduction (%) 14 Days After Application, ORYSA

| SMILES | pest or weed control at 140 g/ha |
| --- | --- |
| COC(=O)c1nc(-c2ccc(C#N)c(Cl)c2)ccc1Cl [F125, Methyl 3-chloro-6-(3-chloro-4-cyanophenyl) picolinate] | 0 to 29% |
| COC(=O)c1nc(-c2ccc(C(F)(F)F)cc2Br)ccc1Cl [F30, Methyl 6-(2-bromo-4-trifluoromethyl)phenyl-3-chloropicolinate] | 0 to 29% |

same assay, conditions: post-emergence, 336 h, SETFA: giant foxtail (Setaria faberi), 140 g ai/ha, 14 days after application, read-out: Visual Growth Reduction (%) 14 Days After Application, SETFA

| SMILES | pest or weed control at 140 g/ha |
| --- | --- |
| COC(=O)c1nc(-c2ccc(C#N)c(Cl)c2)ccc1Cl [F125, Methyl 3-chloro-6-(3-chloro-4-cyanophenyl) picolinate] | 0 to 29% |
| COC(=O)c1nc(-c2ccc(C(F)(F)F)cc2Br)ccc1Cl [F30, Methyl 6-(2-bromo-4-trifluoromethyl)phenyl-3-chloropicolinate] | 45 to 59% |

same assay, conditions: post-emergence, 336 h, SORVU: grain sorghum (Sorghum vulgare), 140 g ai/ha, 14 days after application, read-out: Visual Growth Reduction (%) 14 Days After Application, SORVU

| SMILES | pest or weed control at 140 g/ha |
| --- | --- |
| COC(=O)c1nc(-c2ccc(C#N)c(Cl)c2)ccc1Cl [F125, Methyl 3-chloro-6-(3-chloro-4-cyanophenyl) picolinate] | 0 to 29% |
| COC(=O)c1nc(-c2ccc(C(F)(F)F)cc2Br)ccc1Cl [F30, Methyl 6-(2-bromo-4-trifluoromethyl)phenyl-3-chloropicolinate] | 85 to 94% |

same assay, conditions: post-emergence, 336 h, STEME: common chickweed (Stellaria media), 140 g ai/ha, 14 days after application, read-out: Visual Growth Reduction (%) 14 Days After Application, STEME

| SMILES | pest or weed control at 140 g/ha |
| --- | --- |
| COC(=O)c1nc(-c2ccc(C#N)c(Cl)c2)ccc1Cl [F125, Methyl 3-chloro-6-(3-chloro-4-cyanophenyl) picolinate] | 0 to 29% |
| COC(=O)c1nc(-c2ccc(C(F)(F)F)cc2Br)ccc1Cl [F30, Methyl 6-(2-bromo-4-trifluoromethyl)phenyl-3-chloropicolinate] | 0 to 29% |

same assay, conditions: post-emergence, 336 h, TRZAS: wheat, spring (Triticum aestivum), 140 g ai/ha, 14 days after application, read-out: Visual Growth Reduction (%) 14 Days After Application, TRZAS

| SMILES | pest or weed control at 140 g/ha |
| --- | --- |
| COC(=O)c1nc(-c2ccc(C#N)c(Cl)c2)ccc1Cl [F125, Methyl 3-chloro-6-(3-chloro-4-cyanophenyl) picolinate] | 0 to 29% |
| COC(=O)c1nc(-c2ccc(C(F)(F)F)cc2Br)ccc1Cl [F30, Methyl 6-(2-bromo-4-trifluoromethyl)phenyl-3-chloropicolinate] | 60 to 74% |
